According to PubChem BioAssay (NCI):
Where “and” joins values, the source holds several entries; their conditions need not be identical. Identical values can stand only once.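 Briefly, cells in 96-well plates were exposed to five compound concentrations for 48 h, and endpoints were estimated by linear interpolation. GI50: concentration for 50% inhibition of growth. At the TGI there is no net growth.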

What was measured:
Assay in all cases: NCI tumour cell line growth inhibition, 48 h
KM20L2 colon = tested on: KM20L2 colon
HOP-18 NSCLC = tested on: HOP-18 NSCLC
DMS 273 small cell lung = tested on: DMS 273 small cell lung
DLD-1 colon = tested on: DLD-1 colon
XF 498 CNS = tested on: XF 498 CNS
LXFL 529 NSCLC = tested on: LXFL 529 NSCLC
RXF-631 renal = tested on: RXF-631 renal
SNB-78 CNS = tested on: SNB-78 CNS
MDA-N = tested on: MDA-N
SN12K1 renal = tested on: SN12K1 renal
P388/ADR leukemia = tested on: P388/ADR leukemia

Row | Structure (SMILES) | TGI (KM20L2 colon) [µM] | TGI (HOP-18 NSCLC) | TGI (DMS 273 small cell lung) | TGI (DLD-1 colon) | TGI (XF 498 CNS) | TGI (LXFL 529 NSCLC) | TGI (RXF-631 renal) [µM] | TGI (SNB-78 CNS) | TGI (MDA-N) | further results
1 | CC1=C(C(=O)Nc2ccccc2C)C(c2ccc([N+](=O)[O-])cc2)C(C(=O)Nc2ccccc2C)=C(C)N1 | > 100 | > 100 µM | > 100 µM | > 100 µM | > 100 µM | > 100 µM | > 100 |  |  | 
2 | CCc1cccc(CC)c1NC(=S)NC(=O)c1ccc(Br)cc1 | > 100 | > 100 µM | > 100 µM | > 100 µM | > 100 µM | > 100 µM | > 100 | > 100 µM | > 100 µM | 
3 | C#CCN1CCN(C(=S)N/N=C(\C)c2ccccn2)CC1 | 15 | 10.6 µM | 4.57 µM | 6.58 µM | 2.72 µM | 18.2 µM |  | 21.7 µM | 3.76 µM and 8.58 µM | GI50 (KM20L2 colon): < 0.001 µM; TGI (SN12K1 renal): 2.22 µM; GI50 (DMS 273 small cell lung): 0.0092 µM; GI50 (DLD-1 colon): 0.00155 µM
4 | O=C(O)c1cc2ccccc2c(N=Nc2c([N+](=O)[O-])cc([N+](=O)[O-])cc2S(=O)(=O)O)c1O |  |  |  |  |  |  |  |  | > 100 µM | 
5 | FC(F)(F)c1ccc(C=NC23CC4CC(CC(C4)C2)C3)cc1 | > 100 |  | > 100 µM |  |  |  |  | > 100 µM |  | 
6 | CCCCCCCCCCCCCC/C(C(=O)OC)=C(/O)C(=O)OCC |  | 73.7 µM | > 100 µM | > 100 µM | 53.8 µM | > 100 µM | 93.6 | > 100 µM |  | 
7 | Cc1cc(O)c2c(c1)C(=O)c1cc(O)cc(O)c1C2=O | > 100 | 37 µM | 62.2 µM | > 100 µM | 86.7 µM | 85.3 µM | > 100 | > 100 µM |  | 
8 | O=C(O)CCC1COc2ccccc2O1 (stereo unspecified) |  |  |  |  |  |  |  |  | > 10 µM | 
9 | CC(=O)O[C@H]1[C@@H]2[C@@H]3[C@@H](C[C@H]1C)[C@@H](C)CO[C@@]1(C)CC/C=C(/C)C[C@@H]2O[C@@H]31 | > 100 | > 100 µM | > 100 µM | > 100 µM | > 100 µM | > 100 µM | > 100 |  |  | 
10 | NC(=O)c1csc(C2C=CC(CO)O2)n1 (stereo unspecified) | > 100 | > 100 µM | > 100 µM |  | > 100 µM | > 100 µM | > 100 | > 100 µM |  | 
11 | CC(=O)NNc1nc(C)c(C(/C=C/c2ccc(Cl)cc2)=N\NS(=O)(=O)c2ccc(C)cc2)s1 | > 100 | > 100 µM | > 100 µM | > 100 µM | > 100 µM | > 100 µM | > 100 | > 100 µM |  | 
12 | Cc1ccc(NS(=O)(=O)c2cc(C(C)(C)C)ccc2OCCOCCOCCOc2ccc(C(C)(C)C)cc2S(=O)(=O)Nc2ccc(C)cc2)cc1 |  | > 100 µM | > 100 µM | > 100 µM |  |  |  | > 100 µM |  | 
13 | CCC(C(=O)[O-])C(=O)[O-].CCC(C(=O)[O-])C(=O)[O-].N.N.NCCCCCN.[Pt+4].[Pt+4] | > 100 | > 100 µM | > 100 µM | > 100 µM |  | > 100 µM |  | > 100 µM |  | GI50 (KM20L2 colon): > 100 µM; GI50 (HOP-18 NSCLC): > 100 µM; GI50 (DMS 273 small cell lung): 95.8 µM; GI50 (DLD-1 colon): > 100 µM; GI50 (SNB-78 CNS): > 100 µM; GI50 (LXFL 529 NSCLC): > 100 µM
14 | CO[C@H]1[C@H](O)[C@H](O[C@H]2CC[C@@]3(C)[C@H](CC[C@@H]4[C@@H]3CC[C@]3(C)[C@@H](C5=CC(=O)OC5)CC[C@]43O)C2)O[C@@H](C)[C@@H]1O | 0.0118 | 0.00382 µM | 0.00303 µM | 0.00767 µM |  | 0.00658 µM and 0.0128 µM | > 100 |  | < 0.0001 µM | GI50 (RXF-631 renal): > 100 µM
15 | C(CCc1nnc2c(n1)CCCC2)Cc1nnc2c(n1)CCCC2 |  |  |  |  |  |  |  |  | > 100 µM | 
16 | C=C(CN(CC(=C)C(=O)c1ccccc1)C(C)(C)C)C(=O)c1ccccc1 | 37.5 | 14.3 µM | 32.4 µM | 10.2 µM | 16 µM | 10.1 µM |  | 53.7 µM |  | 
17 | CC1C=C(OC(=O)c2ccccc2)C(=O)C(n2cc(F)c(=O)n(C(=O)c3ccccc3)c2=O)O1 (stereo unspecified) | 81.9 | > 100 µM | > 100 µM | > 100 µM | 73.3 µM |  | > 100 | > 100 µM |  | 
18 | NCCNCC(O)CO (stereo unspecified) |  |  |  |  |  |  |  |  | > 100 µM | 
19 | Cn1cc2c(n1)c(N/N=C/c1ccccc1)nn1nnnc21 | > 100 | > 100 µM | > 100 µM | > 100 µM | > 100 µM | > 100 µM | > 100 | > 100 µM |  | 
20 | CCCCn1c2c(c3ccccc3c1=O)C(=O)c1ccccc1-2 |  |  |  |  |  |  |  |  | > 100 µM | 

Row | Structure (SMILES) | TGI (KM20L2 colon) [µM] | TGI (HOP-18 NSCLC) | TGI (DMS 273 small cell lung) | TGI (DLD-1 colon) | TGI (XF 498 CNS) | TGI (LXFL 529 NSCLC) | TGI (RXF-631 renal) [µM] | TGI (SNB-78 CNS) | TGI (MDA-N) | further results
21 | CCC(=O)OC1CCn2c1nc1c2C(=O)C(C)=C(N2CC2)C1=O (stereo unspecified) | 0.831 | 0.228 µM | 0.121 µM | 1.58 µM | 0.0973 µM | 0.35 µM |  | 1.41 µM | 0.181 µM | 
22 | COC(=O)c1ccccc1NC(=O)C(=O)CC(=O)c1ccccc1NC1=CC(=O)C(=O)c2ccccc21 | > 100 | 29.6 µM | 25.8 µM | 30.4 µM | 30.9 µM | 27.2 µM | > 80.8 | > 100 µM | 3.18 µM | 
23 | N/N=C1\c2ccccc2C2/C(=N\N)c3ccccc3C12 (stereo unspecified) | > 100 | > 100 µM | > 100 µM | > 100 µM |  | > 100 µM |  |  |  | 
24 | NC(=O)c1[nH]nc(C2OC(CO)C(O)C2O)c1O (stereo unspecified) | > 5000 | 812 µM | 210 µM | 447 µM | 247 µM |  |  | 2820 µM | 923 µM | TGI (SN12K1 renal): 663 µM; TGI (P388/ADR leukemia): 241 µM
25 | CCOc1ccccc1NC(=O)CCc1nnc2s/c(=C\CCc3ccccc3)c(=O)n12 | > 100 |  | > 100 µM | > 100 µM | > 100 µM | > 100 µM |  | > 100 µM |  | 
26 | Cc1ccc(S(=O)(=O)N2CCC3(C(/C=C/c4ccccc4)=Nc4ccccc43)C2c2ccccc2)cc1 (stereo unspecified) | > 100 |  | > 100 µM | > 100 µM | > 100 µM | > 100 µM |  | > 100 µM |  | 
27 | CC1CCCC(C(O)CC2CC(=O)N(c3ccccc3)C(=O)C2)C1=O (stereo unspecified) | > 100 | > 100 µM | > 100 µM | > 100 µM |  | > 100 µM |  | > 100 µM |  | 
28 | C=CCNC1=C(C(=O)OCC)C(=O)CO1 | > 100 |  | > 100 µM | > 100 µM | > 100 µM | > 100 µM | > 100 | > 100 µM |  | 
29 | C/C(=N\NC(=O)CC(=O)Nc1ccc(Cl)cc1)c1cc2ccccc2oc1=O | > 100 | > 100 µM | > 100 µM | > 100 µM | > 100 µM |  |  |  |  | 
30 | O=C1C=CC(=O)C1(Br)Br |  |  |  |  |  |  |  |  | 27.5 µM | 
31 | CN(C)c1ccc(/C=C2\CNC/C(=C\c3ccc(N(C)C)cc3)C2=O)cc1 | > 100 | 36.8 µM | 27.6 µM | 46.2 µM | 48.6 µM | 98.2 µM | 60.7 | > 100 µM |  | 
32 | Cc1c(O)c(=O)ccn1C1OC(CO)C(O)C1O (stereo unspecified) | > 100 |  | > 100 µM | > 100 µM | > 100 µM | > 100 µM |  | > 100 µM |  | 
33 | CC(=O)OCC1OC(OC2CC3C(C)(C)C(OC(C)=O)CC[C@]3(C)C3CCC45CC4(CC[C@H]5C(C)CC(O)C4OC4(C)C)[C@]23C)C(O)C(O)C1O (stereo partly specified) |  | 8.91 µM and 5.96 µM | 5.76 µM and 4.37 µM | 4.4 µM and 4.77 µM | 3.64 µM and 3.81 µM | 10.6 µM and 15.2 µM | 9.55 | 13.3 µM and 16.2 µM |  | GI50 (KM20L2 colon): > 60 µM; GI50 (DLD-1 colon): 2.38 µM; GI50 (SNB-78 CNS): 3.96 µM; GI50 (XF 498 CNS): 1.26 µM; GI50 (LXFL 529 NSCLC): 3.74 µM
34 | O=C1c2cccnc2-c2nc(/C=C/c3ccccc3)cc3c2c1nc1ccccc13 |  |  |  |  |  |  |  |  | 4.15 µM | GI50 (MDA-N): 2.04 µM
35 | COC(=O)c1ccc(=O)c2nc3/c(=C/O)c(O)cc(=O)c3[nH]c12 |  |  |  |  |  |  |  |  | 24.6 µM | 
36 | O=C1CC2CCCCC2=C1O (stereo unspecified) |  |  | > 100 µM | > 100 µM | > 100 µM | > 100 µM | > 100 | > 100 µM |  | 
37 | O=C(CC/C(C/C(=N/O)c1ccc(F)cc1)=N/O)N(Cc1ccccc1)Cc1ccccc1 | > 100 | > 100 µM | > 100 µM | > 100 µM |  | > 100 µM |  |  |  | 
38 | COc1cc(-c2oc3c(OC)c(OC)cc(O)c3c(=O)c2OC)ccc1O | > 100 |  |  | > 100 µM | 16.1 µM | > 100 µM | > 100 | > 100 µM | > 50 µM | 
39 | CCOP(=O)(CC(=O)C1=C(O)C(CCCNC(=O)OC(C)(C)C)N(Cc2ccc(OC)c(OC)c2)C1=O)OCC (stereo unspecified) | > 100 | > 100 µM | > 100 µM | > 100 µM |  | > 100 µM | > 100 |  |  | 
40 | Cc1ccc(S(=O)(=O)CNC(=S)CCCC(=S)NCS(=O)(=O)c2ccc(C)cc2)cc1 | > 100 |  | > 100 µM | > 100 µM | > 100 µM | > 100 µM | > 100 | > 100 µM |  | 
